Literature values as cited in US20220193127A1, “IMMUNOTHERAPY FOR OPIOID ADDICTION” (Therapeutic Solutions International, Inc., priority 2020, published 2022).

Key:
[1] = system: dentate gyrus of the hippocampus
microglial cells = conditions: for development of neuropathic pain: in vivo; for microglial activation / proinflammatory cytokines: neuropathic pain
[2] = rats fed for 6 weeks with liquid diet containing moderate doses of ethanol, vs paired controls

SMILES | neurogenesis within the olfactory bulb ([1]; rat model of alcoholism) | decrease in the number of new neurons in the dentate gyrus [1, 2] | increase in cell death in the dentate gyrus [1, 2] | development of neuropathic pain (microglial cells) | microglial activation (microglial cells) | proinflammatory cytokines (microglial cells)
CCO [ethanol] | not affected | 66.3% | 227-279% |  |  | 
O=C(O)CC(O)(C(=O)O)C(F)C(=O)O (stereo not drawn) [fluorocitrate] |  |  |  | suppressing | decrease | inhibit
CC(=O)CCCCn1c(=O)c2c(ncn2C)n(C)c1=O [pentoxifylline] |  |  |  | suppressing | decrease | inhibit
CCCn1cnc2c1c(=O)n(CCCCC(C)=O)c(=O)n2C [propentofylline] |  |  |  | suppressing | decrease | inhibit
